Patent US9526796B2, “Peptide-based in vivo siRNA delivery system” (priority 2010, dated 2016)
Non-standard residues stand in square brackets, D forms with d. No end group written: not given here. Nle = CCCC[C@H](N)C(=O)O

System: ApoB
Assay: Knockdown of endogenous serum ApoB in mice after co-injection of masked melittin delivery peptide and ApoB siRNA-cholesterol conjugate
Format: in vivo
Procedure: RNAi polynucleotide conjugates and masked melittin peptides were synthesized as described above. Six to eight week old mice (strain C57BL/6 or ICR, ˜18-20 g each) were obtained from Harlan Sprague Dawley (Indianapolis Ind.). Mice were housed at least 2 days prior to injection. Feeding was performed ad libitum with Harlan Teklad Rodent Diet (Harlan, Madison Wis.). Mice were injected with 0.2 mL solution of delivery peptide and 0.2 mL siRNA conjugates into the tail vein. For simultaneous injection of delivery peptide and siRNA, the siRNA-conjugate was added to modified peptide prior to injection and the entire amount was injected. The composition was soluble and nonaggregating in physiological conditions. Solutions were injected by infusion into the tail vein.
Mice were fasted for 4 h (16 h for rats) before serum collection by submandibular bleeding. For rats blood was collected from the jugular vein. Serum ApoB protein levels were determined by standard sandwich ELISA methods. Briefly, a polyclonal goat anti-mouse ApoB antibody and a rabbit anti-mouse ApoB antibody (Biodesign International) were used as capture and detection antibodies respectively. An HRP-conjugated goat anti-rabbit IgG antibody (Sigma) was applied afterwards to bind the ApoB/antibody complex. Absorbance of tetramethyl-benzidine (TMB, Sigma) colorimetric development was then measured by a Tecan Safire2 (Austria, Europe) microplate reader at 450 nm.
Melittin was reversibly modified with CDM-NAG as described above. The indicated amount of melittin was then co-injected with the 200 μg ApoB siRNA-cholesterol conjugate. Effect on ApoB levels were determined as described above.
Melittin was reversibly modified with CDM-NAG as described above. The indicated amount of melittin was then co-injected with 50 μg ApoB siRNA-cholesterol conjugate. Effect on ApoB levels were determined as described above.
Melittin was reversibly modified with CDM-NAG (5×) as described above. The indicated amount of melittin was then co-injected with the indicated amount of ApoB siRNA-cholesterol conjugate. Effect on ApoB levels were determined as described above.
Melittin was reversibly modified with the indicated amount of CDM-NAG as described above. 50 μg melittin was then co-injected with the 100 μg ApoB siRNA-cholesterol conjugate. Effect on ApoB levels were determined as described above.
Melittin peptides having the indicated sequence were reversibly modified with CDM-NAG (5×) as described above. The indicated amount of melittin was then co-injected with the indicated amount of ApoB siRNA-cholesterol conjugate. Effect on ApoB levels were determined as described above.
Melittin peptides containing the indicated PEG amino terminal modifications were synthesized as described above. The PEG amino terminal modified melittin peptides were then reversibly modified with 5×CDM-NAG as described above. The indicated amount of Melittin was then co-injected with the 100-200 μg ApoB siRNA-cholesterol conjugate. Effect on ApoB levels were determined as described above. Addition of PEG less than 5 kDa in size decreased toxicity of the melittin peptides.

[1] = CDM-NAG (5×), 100 μg peptide per mouse, 100 μg siRNA per mouse
[2] = CDM-NAG (5×), 400 μg peptide per mouse, 100 μg siRNA per mouse
[3] = CDM-NAG (5×), 100 μg peptide per mouse, 50 μg siRNA per mouse
[4] = CDM-NAG (5×), 200 μg peptide per mouse, 200 μg siRNA per mouse
[5] = CDM-NAG (5×), 80 μg peptide per mouse, 100 μg siRNA per mouse

## G1L, I2V, I5V, I17V, I20V (Seq ID 45): melittin peptide derivative (LVGAVLKVLATGLPTLVSWVKNKRKQ; melittin-like peptide derive from Apis florea)
[1]
  percent knockdown: 24%

## G1L, K7H (Seq ID 20): melittin peptide derivative (LIGAILHVLATGLPTLISWIKNKRKQ; melittin-like peptide derive from Apis florea)
[1]
  percent knockdown: 97%

## G1L, K7R (Seq ID 19): melittin peptide derivative (LIGAILRVLATGLPTLISWIKNKRKQ; melittin-like peptide derive from Apis florea)
[1]
  percent knockdown: 92%

## G1L, K7S (Seq ID 18): melittin peptide derivative (LIGAILSVLATGLPTLISWIKNKRKQ; melittin-like peptide derive from Apis florea)
[1]
  percent knockdown: 89%

## G1L, K21A (Seq ID 28): melittin peptide derivative (YIGAILKVLATGLPTLISWIANKRKQ; melittin-like peptide derive from Apis florea)
[1]
  percent knockdown: 95%

## G1L, L5V, A10T, T15A Mel (1-23) (Seq ID 72): melittin peptide derivative
[2]
  percent knockdown: 69%

## G1L, L5V, A10T, T15A, N22G, K23E dMel (1-23) (Seq ID 73): melittin peptide derivative
[2]
  percent knockdown: 92%

## G1L, Mel-KKKKK (Seq ID 67): melittin peptide derivative (LIGAILKVLATGLPTLISWIKNKRKQKKKKK; C-terminal KKKKK extension; melittin-like peptide derive from Apis florea)
[2]
  percent knockdown: 96%

## G1L, R24A (Seq ID 30): melittin peptide derivative (LIGAILKVLATGLPTLISWIKNKAKQ; melittin-like peptide derive from Apis florea)
[1]
  percent knockdown: 87%

## G1L, S18C (Seq ID 25): melittin peptide derivative (LIGAILKVLATGLPTLICWIKNKRKQ; melittin-like peptide derive from Apis florea)
[1]
  percent knockdown: 93%

## G1L, T11C dMel (Seq ID 21): melittin peptide derivative ([dL][dI]G[dA][dI][dL][dK][dV][dL][dA][dC]G[dL][dP][dT][dL][dI][dS][dW][dI][dK][dN][dK][dR][dK][dQ])
[3]
  percent knockdown: 81%

## G1L, T11C, S18C dMel (Seq ID 38): melittin peptide derivative ([dL][dI]G[dA][dI][dL][dK][dV][dL][dA][dC]G[dL][dP][dT][dL][dI][dC][dW][dI][dK][dN][dK][dR][dK][dQ]; cysteine pairing not given here)
[1]
  percent knockdown: 88%

## G1L, T15C dMel (Seq ID 24): melittin peptide derivative ([dL][dI]G[dA][dI][dL][dK][dV][dL][dA][dT]G[dL][dP][dC][dL][dI][dS][dW][dI][dK][dN][dK][dR][dK][dQ])
[1]
  percent knockdown: 95%

## G1Nle (Seq ID 8): melittin peptide derivative ([Nle]IGAILKVLATGLPTLISWIKNKRKQ)
[1]
  percent knockdown: 96%

## G1Nle Mel-C (Seq ID 64): melittin peptide derivative ([Nle]IGAILKVLATGLPTLISWIKNKRKQC)
CDM-NAG (5×), 400 μg peptide per mouse, 50 μg siRNA per mouse
  percent knockdown: 89%

## G1V (Seq ID 9): melittin peptide derivative (VIGAILKVLATGLPTLISWIKNKRKQ; melittin-like peptide derive from Apis florea)
[1]
  percent knockdown: 91%

## G1W (Seq ID 10): melittin peptide derivative (WIGAILKVLATGLPTLISWIKNKRKQ; melittin-like peptide derive from Apis florea)
[4]
  percent knockdown: 96%

## G1Y Mel-PLGIAGQC (Seq ID 66): melittin peptide derivative (YIGAILKVLATGLPTLISWIKNKRKQPLGIAGQC; C-terminal PLGIAGQC extension; melittin-like peptide derive from Apis florea)
[1]
  percent knockdown: 79%

## G1Y dMel (Seq ID 11): G1Y melittin peptide having D-form amino acids ([dY][dI]G[dA][dI][dL][dK][dV][dL][dA][dT]G[dL][dP][dT][dL][dI][dS][dW][dI][dK][dN][dK][dR][dK][dQ])
[3]
  percent knockdown: 95%

## G1Y dMel-GFKGC (Seq ID 68): melittin peptide derivative ([dY][dI]G[dA][dI][dL][dK][dV][dL][dA][dT]G[dL][dP][dT][dL][dI][dS][dW][dI][dK][dN][dK][dR][dK][dQ]GFKGC)
[2]
  percent knockdown: 96%

## G1Y, K7A (Seq ID 17): melittin peptide derivative (YIGAILAVLATGLPTLISWIKNKRKQ; melittin-like peptide derive from Apis florea)
[2]
  percent knockdown: 83%

## G1Y, K7A, K21A (Seq ID 35): melittin peptide derivative (YIGAILAVLATGLPTLISWIANKRKQ; melittin-like peptide derive from Apis florea)
[1]
  percent knockdown: 14%

## G1Y, K7N (Seq ID 16): melittin peptide derivative (YIGAILNVLATGLPTLISWIKNKRKQ; melittin-like peptide derive from Apis florea)
[5]
  percent knockdown: 32%

## G1Y, K23A (Seq ID 29): melittin peptide derivative (YIGAILKVLATGLPTLISWIKNARKQ; melittin-like peptide derive from Apis florea)
[1]
  percent knockdown: 42%

## G1Y, K25A (Seq ID 31): melittin peptide derivative (YIGAILKVLATGLPTLISWIKNKRAQ; melittin-like peptide derive from Apis florea)
[1]
  percent knockdown: 77%

## G1Y, Q26C (Seq ID 32): melittin peptide derivative (YIGAILKVLATGLPTLISWIKNKRKC; melittin-like peptide derive from Apis florea)
[1]
  percent knockdown: 93%

## G1Y-Mel-NH2 (Seq ID 110): melittin peptide derivative (YIGAILKVLATGLPTLISWIKNKRKQ-NH2)
[4]
  percent knockdown: 94%

## G1dI (D form Ile at 1^st position, Seq ID 6): melittin peptide derivative ([dI]IGAILKVLATGLPTLISWIKNKRKQ)
CDM-NAG (5×), 50 μg peptide per mouse, 100 μg siRNA per mouse
  percent knockdown: 34%

## G12L (Seq ID 13): melittin peptide derivative (GIGAILKVLATLLPTLISWIKNKRKQ; melittin-like peptide derive from Apis florea)
[5]
  percent knockdown: 58%

## G12W (Seq ID 14): melittin peptide derivative (GIGAILKVLATWLPTLISWIKNKRKQ; melittin-like peptide derive from Apis florea)
[5]
  percent knockdown: 51%

## Leu-Melittin (Seq ID 7) L form: G1L melittin peptide, L form amino acids (LIGAILKVLATGLPTLISWIKNKRKQ; melittin-like peptide derive from Apis florea)
1× CDM-NAG, 100 μg siRNA, 50 μg peptide
  % knockdown: 74%
2× CDM-NAG, 100 μg siRNA, 50 μg peptide
  % knockdown: 88%
5× CDM-NAG, 50 μg siRNA, 25 μg peptide
  % knockdown: 15%
5× CDM-NAG, 50 μg siRNA, 50 μg peptide
  % knockdown: 70%
5× CDM-NAG, 50 μg siRNA, 100 μg peptide
  % knockdown: 90%
5× CDM-NAG, 50 μg siRNA, 200 μg peptide
  % knockdown: 90%
5× CDM-NAG, 50 μg siRNA, 400 μg peptide
  % knockdown: 90%
5× CDM-NAG, 100 μg siRNA, 50 μg peptide
  % knockdown: 82%
5× CDM-NAG, no PEG modification, 25 μg peptide, 100 μg siRNA
  percent knockdown: 0%
5× CDM-NAG, no PEG modification, 50 μg peptide, 100 μg siRNA
  percent knockdown: 72%
5× CDM-NAG, no PEG modification, 100 μg peptide, 100 μg siRNA
  percent knockdown: 94%
